Source: patent US7138361B2, “Herbicidal heterocycles” (E. I. du Pont de Nemours and Company, priority 2000, dated 2006)

Assays:
Assay in all cases: Test C postemergence
Format in all cases: in vivo
[1] = test system: crabgrass (Digitaria sanguinalis)
Summary of the method: (§1)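 Each compound was dissolved in a non-phytotoxic solvent system containing a surfactant and sprayed either on freshly planted seeds (preemergence) or on young plants, 2 to 18 cm high (postemergence). Ratings after 12 to 14 greenhouse days ran from 0, no effect, to 100, complete control.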

[2] = test system: giant foxtail (Setaria faberii)
Summary of the method: as §1

[3] = test system: soybean (Glycine max)
Summary of the method: as §1

[4] = test system: cocklebur (Xanthium strumarium)
Summary of the method: as §1

[5] = test system: pigweed (Amaranthus retroflexus)
Summary of the method: as §1

[6] = test system: velvetleaf (Abutilon theophrasti)
Summary of the method: as §1

[7] = test system: morningglory (Ipomoea hederacea)
Summary of the method: as §1

[8] = test system: corn (Zea mays)
Summary of the method: as §1

[9] = test system: Surinam grass (Brachiaria decumbens)
Summary of the method: as §1

[10] = test system: goosegrass (Eleusine indica)
Summary of the method: as §1

[11] = test system: yellow nutsedge (Cyperus esculentus)
Summary of the method: as §1

[12] = test system: chickweed (Stellaria media)
Summary of the method: as §1

[13] = test system: johnsongrass (Sorghum halepense)
Summary of the method: as §1

[14] = test system: kochia (Kochia scoparia)
Summary of the method: as §1

[15] = test system: woolly cupgrass (Eriochloa villosa)
Summary of the method: as §1

[16] = Rate 125 g/ha, scale 0 to 100, 0 no effect, 100 complete control
[17] = Rate 250 g/ha, scale 0 to 100 (0 no effect, 100 complete control)
[18] = Rate 500 g/ha, scale 0 to 100 (0 no effect, 100 complete control)
[19] = Rate 62 g/ha, scale 0 to 100, 0 no effect, 100 complete control

CC(C)(C)c1ccn(C2SCN(c3cccc(OC(F)(F)F)c3)C2=O)n1 (centres unmarked) [Compound 30]
Plant response rating, Crabgrass [1, 16]: 30
Plant response rating, Crabgrass [1, 17]: 30
Plant response rating, Crabgrass [1, 18]: 90
Plant response rating, Foxtail, Giant [2, 16]: 0
Plant response rating, Foxtail, Giant [2, 17]: 30
Plant response rating, Foxtail, Giant [2, 18]: 80
Plant response rating, Soybean [3, 16]: 0
Plant response rating, Soybean [3, 17]: 0
Plant response rating, Soybean [3, 18]: 0
Plant response rating, Cocklebur [4, 16]: 30
Plant response rating, Cocklebur [4, 17]: 30
Plant response rating, Cocklebur [4, 18]: 50
Plant response rating, Pigweed [5, 16]: 80
Plant response rating, Pigweed [5, 17]: 90
Plant response rating, Pigweed [5, 18]: 100
Plant response rating, Velvetleaf [6, 16]: 30
Plant response rating, Velvetleaf [6, 17]: 50
Plant response rating, Velvetleaf [6, 18]: 60
Plant response rating, Morningglory [7, 16]: 0
Plant response rating, Morningglory [7, 17]: 40
Plant response rating, Morningglory [7, 18]: 40
Plant response rating, Corn [8, 16]: 20
Plant response rating, Corn [8, 17]: 30
Plant response rating, Corn [8, 18]: 40
Plant response rating, Surinam grass [9, 19]: 0
Plant response rating, Surinam grass [9, 16]: 0
Plant response rating, Surinam grass [9, 17]: 0
Plant response rating, Surinam grass [9, 18]: 60
Plant response rating, Goosegrass [10, 16]: 0
Plant response rating, Goosegrass [10, 17]: 30
Plant response rating, Goosegrass [10, 18]: 40
Plant response rating, Nutsedge [11, 16]: 0
Plant response rating, Nutsedge [11, 17]: 0
Plant response rating, Nutsedge [11, 18]: 0
Plant response rating, Chickweed [12, 19]: 50
Plant response rating, Chickweed [12, 16]: 60
Plant response rating, Chickweed [12, 17]: 70
Plant response rating, Chickweed [12, 18]: 90
Plant response rating, Johnsongrass [13, 16]: 0
Plant response rating, Johnsongrass [13, 17]: 0
Plant response rating, Johnsongrass [13, 18]: 90
Plant response rating, Kochia [14, 16]: 70
Plant response rating, Kochia [14, 17]: 70
Plant response rating, Kochia [14, 18]: 90
Plant response rating, Cupgrass, Woolly [15, 16]: 30
Plant response rating, Cupgrass, Woolly [15, 17]: 40
Plant response rating, Cupgrass, Woolly [15, 18]: 80

COc1cc(N2CCC(n3ccc(C(C)C)n3)C2=O)ccc1Cl (centres unmarked) [Compound 120]
Plant response rating, Crabgrass ([1]; Rate 62 g/ha, scale 0 to 100): 0
Plant response rating, Crabgrass [1, 17]: 40
Plant response rating, Crabgrass [1, 18]: 90
Plant response rating, Foxtail, Giant ([2]; Rate 62 g/ha, scale 0 to 100): 0
Plant response rating, Foxtail, Giant [2, 17]: 0
Plant response rating, Foxtail, Giant [2, 18]: 70
Plant response rating, Soybean ([3]; Rate 62 g/ha, scale 0 to 100): 30
Plant response rating, Soybean [3, 17]: 60
Plant response rating, Soybean [3, 18]: 60
Plant response rating, Cocklebur ([4]; Rate 62 g/ha, scale 0 to 100): 0
Plant response rating, Cocklebur [4, 17]: 80
Plant response rating, Cocklebur [4, 18]: 90
Plant response rating, Pigweed ([5]; Rate 62 g/ha, scale 0 to 100): 0
Plant response rating, Pigweed [5, 17]: 60
Plant response rating, Pigweed [5, 18]: 90
Plant response rating, Velvetleaf ([6]; Rate 62 g/ha, scale 0 to 100): 0
Plant response rating, Velvetleaf [6, 17]: 0
Plant response rating, Velvetleaf [6, 18]: 0
Plant response rating, Velvetleaf ([6]; scale 0 to 100): 0
Plant response rating, Morningglory ([7]; Rate 62 g/ha, scale 0 to 100): 0
Plant response rating, Morningglory [7, 17]: 90
Plant response rating, Morningglory [7, 18]: 100
Plant response rating, Corn ([8]; Rate 62 g/ha, scale 0 to 100): 30
Plant response rating, Corn [8, 17]: 30
Plant response rating, Corn [8, 18]: 50
Plant response rating, Corn ([8]; scale 0 to 100): 30
Plant response rating, Surinam grass ([9]; Rate 62 g/ha, scale 0 to 100): 0
Plant response rating, Surinam grass [9, 16]: 0
Plant response rating, Surinam grass [9, 17]: 0
Plant response rating, Surinam grass [9, 18]: 0
Plant response rating, Goosegrass ([10]; Rate 62 g/ha, scale 0 to 100): 0
Plant response rating, Goosegrass [10, 17]: 0
Plant response rating, Goosegrass [10, 18]: 60
Plant response rating, Nutsedge ([11]; Rate 62 g/ha, scale 0 to 100): 0
Plant response rating, Nutsedge [11, 17]: 0
Plant response rating, Nutsedge [11, 18]: 50
Plant response rating, Johnsongrass ([13]; Rate 62 g/ha, scale 0 to 100): 0
Plant response rating, Johnsongrass [13, 17]: 0
Plant response rating, Johnsongrass [13, 18]: 0
Plant response rating, Johnsongrass ([13]; rate not given, scale 0 to 100): 0
Plant response rating, Kochia ([14]; Rate 62 g/ha, scale 0 to 100): 50
Plant response rating, Kochia [14, 17]: 90
Plant response rating, Kochia [14, 18]: 90
Plant response rating, Cupgrass, Woolly ([15]; Rate 62 g/ha, scale 0 to 100): 0
Plant response rating, Cupgrass, Woolly [15, 17]: 0
Plant response rating, Cupgrass, Woolly [15, 18]: 0

CCCC(C)c1ccn(C2CCN(c3ccc(Cl)c(OC)c3)C2=O)n1 (centres unmarked) [Compound 121]
Plant response rating, Crabgrass ([1]; Rate 62 g/ha, scale 0 to 100): 0
Plant response rating, Crabgrass [1, 17]: 40
Plant response rating, Crabgrass [1, 18]: 60
Plant response rating, Foxtail, Giant ([2]; Rate 62 g/ha, scale 0 to 100): 0
Plant response rating, Foxtail, Giant [2, 17]: 20
Plant response rating, Foxtail, Giant [2, 18]: 60
Plant response rating, Soybean ([3]; Rate 62 g/ha, scale 0 to 100): 50
Plant response rating, Soybean [3, 17]: 60
Plant response rating, Soybean [3, 18]: 70
Plant response rating, Cocklebur ([4]; Rate 62 g/ha, scale 0 to 100): 0
Plant response rating, Cocklebur [4, 17]: 20
Plant response rating, Cocklebur [4, 18]: 40
Plant response rating, Pigweed ([5]; Rate 62 g/ha, scale 0 to 100): 20
Plant response rating, Pigweed [5, 17]: 70
Plant response rating, Pigweed [5, 18]: 90
Plant response rating, Velvetleaf ([6]; Rate 62 g/ha, scale 0 to 100): 0
Plant response rating, Velvetleaf [6, 17]: 20
Plant response rating, Velvetleaf [6, 18]: 40
Plant response rating, Velvetleaf ([6]; scale 0 to 100): 0
Plant response rating, Morningglory ([7]; Rate 62 g/ha, scale 0 to 100): 50
Plant response rating, Morningglory [7, 17]: 70
Plant response rating, Morningglory [7, 18]: 100
Plant response rating, Corn ([8]; Rate 62 g/ha, scale 0 to 100): 0
Plant response rating, Corn [8, 17]: 0
Plant response rating, Corn [8, 18]: 40
Plant response rating, Corn ([8]; scale 0 to 100): 0
Plant response rating, Surinam grass ([9]; Rate 62 g/ha, scale 0 to 100): 0
Plant response rating, Surinam grass [9, 16]: 0
Plant response rating, Surinam grass [9, 17]: 0
Plant response rating, Surinam grass [9, 18]: 0
Plant response rating, Goosegrass ([10]; Rate 62 g/ha, scale 0 to 100): 0
Plant response rating, Goosegrass [10, 17]: 20
Plant response rating, Goosegrass [10, 18]: 50
Plant response rating, Nutsedge ([11]; Rate 62 g/ha, scale 0 to 100): 0
Plant response rating, Nutsedge [11, 17]: 0
Plant response rating, Nutsedge [11, 18]: 0
Plant response rating, Johnsongrass ([13]; Rate 62 g/ha, scale 0 to 100): 0
Plant response rating, Johnsongrass [13, 17]: 0
Plant response rating, Johnsongrass [13, 18]: 0
Plant response rating, Johnsongrass ([13]; rate not given, scale 0 to 100): 0
Plant response rating, Kochia ([14]; Rate 62 g/ha, scale 0 to 100): 70
Plant response rating, Kochia [14, 17]: 70
Plant response rating, Kochia [14, 18]: 90
Plant response rating, Cupgrass, Woolly ([15]; Rate 62 g/ha, scale 0 to 100): 0
Plant response rating, Cupgrass, Woolly [15, 17]: 30
Plant response rating, Cupgrass, Woolly [15, 18]: 60

Cc1ccc(N2CCC(n3ccc(C(C)(C)C)n3)C2=O)cc1I (centres unmarked) [Compound 122]
Plant response rating, Crabgrass ([1]; Rate 62 g/ha, scale 0 to 100): 0
Plant response rating, Crabgrass [1, 17]: 0
Plant response rating, Crabgrass [1, 18]: 0
Plant response rating, Foxtail, Giant ([2]; Rate 62 g/ha, scale 0 to 100): 0
Plant response rating, Foxtail, Giant [2, 17]: 0
Plant response rating, Foxtail, Giant [2, 18]: 40
Plant response rating, Soybean ([3]; Rate 62 g/ha, scale 0 to 100): 40
Plant response rating, Soybean [3, 17]: 50
Plant response rating, Soybean [3, 18]: 60
Plant response rating, Cocklebur ([4]; Rate 62 g/ha, scale 0 to 100): 20
Plant response rating, Cocklebur [4, 17]: 40
Plant response rating, Cocklebur [4, 18]: 70
Plant response rating, Pigweed ([5]; Rate 62 g/ha, scale 0 to 100): 40
Plant response rating, Pigweed [5, 17]: 100
Plant response rating, Pigweed [5, 18]: 100
Plant response rating, Velvetleaf ([6]; Rate 62 g/ha, scale 0 to 100): 0
Plant response rating, Velvetleaf [6, 17]: 0
Plant response rating, Velvetleaf [6, 18]: 20
Plant response rating, Velvetleaf ([6]; scale 0 to 100): 0
Plant response rating, Morningglory ([7]; Rate 62 g/ha, scale 0 to 100): 20
Plant response rating, Morningglory [7, 17]: 90
Plant response rating, Morningglory [7, 18]: 100
Plant response rating, Corn ([8]; Rate 62 g/ha, scale 0 to 100): 0
Plant response rating, Corn [8, 17]: 0
Plant response rating, Corn [8, 18]: 0
Plant response rating, Corn ([8]; scale 0 to 100): 0
Plant response rating, Surinam grass ([9]; Rate 62 g/ha, scale 0 to 100): 0
Plant response rating, Surinam grass [9, 16]: 0
Plant response rating, Surinam grass [9, 17]: 0
Plant response rating, Surinam grass [9, 18]: 0
Plant response rating, Goosegrass ([10]; Rate 62 g/ha, scale 0 to 100): 0
Plant response rating, Goosegrass [10, 17]: 0
Plant response rating, Goosegrass [10, 18]: 0
Plant response rating, Nutsedge ([11]; Rate 62 g/ha, scale 0 to 100): 0
Plant response rating, Nutsedge [11, 17]: 0
Plant response rating, Nutsedge [11, 18]: 0
Plant response rating, Johnsongrass ([13]; Rate 62 g/ha, scale 0 to 100): 0
Plant response rating, Johnsongrass [13, 17]: 0
Plant response rating, Johnsongrass [13, 18]: 0
Plant response rating, Johnsongrass ([13]; rate not given, scale 0 to 100): 0
Plant response rating, Kochia ([14]; Rate 62 g/ha, scale 0 to 100): 90
Plant response rating, Kochia [14, 17]: 100
Plant response rating, Kochia [14, 18]: 100
Plant response rating, Cupgrass, Woolly ([15]; Rate 62 g/ha, scale 0 to 100): 0
Plant response rating, Cupgrass, Woolly [15, 17]: 20
Plant response rating, Cupgrass, Woolly [15, 18]: 20
